Assay results reported in ChEMBL document CHEMBL1201862, “PubChem BioAssay data set” (2004).
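Where inhibition never reached the appropriate level, the endpoint shown equals the highest concentration tested. Otherwise, values were interpolated linearly from a five-concentration, 48-hour dose response in 96-well plates. Here, GI50 denotes the concentration required for 50% inhibition of growth.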 Calls of active or inactive are those of the source. Cut-off read from the data, not from the text of the source: active = GI50 up to about 1.1 µM and inactive = higher.

How the values were obtained:
Experiment in all cases: NCI-60 cell line screen, 48 h
DMS-273 = test system: DMS-273
COLO 205 = test system: COLO 205
SR = test system: SR
OVCAR-8 = test system: OVCAR-8
NCI-H460 = test system: NCI-H460
SF-268 = test system: SF-268
EKVX = test system: EKVX
RXF 393 = test system: RXF 393
OVCAR-5 = test system: OVCAR-5
UACC-257 = test system: UACC-257
HOP-18 = test system: HOP-18
CAKI-1 = test system: CAKI-1
SNB-75 = test system: SNB-75
SW-620 = test system: SW-620
IGROV-1 = test system: IGROV-1
SF-295 = test system: SF-295
786-0 = test system: 786-0
HCT-15 = test system: HCT-15
CCRF-CEM = test system: CCRF-CEM
U-251 = test system: U-251
NCI-H522 = test system: NCI-H522
A498 = test system: A498
NCI-H23 = test system: NCI-H23
DMS-114 = test system: DMS-114
SNB-19 = test system: SNB-19
HCT-116 = test system: HCT-116
Malme-3M = test system: Malme-3M
ACHN = test system: ACHN
HL-60 = test system: HL-60
HCC 2998 = test system: HCC 2998
SK-MEL-2 = test system: SK-MEL-2
KM12 = test system: KM12
DLD-1 = test system: DLD-1
KM-20L2 = test system: KM-20L2
LXFL 529 = test system: LXFL 529
UACC-62 = test system: UACC-62
NCI-H226 = test system: NCI-H226
SN12C = test system: SN12C
M14 = test system: M14
K562 = test system: K562
TK-10 = test system: TK-10
HOP-62 = test system: HOP-62
OVCAR-4 = test system: OVCAR-4
SK-MEL-28 = test system: SK-MEL-28
SK-OV-3 = test system: SK-OV-3
HT-29 = test system: HT-29
M19-MEL = test system: M19-MEL
MOLT-4 = test system: MOLT-4
OVCAR-3 = test system: OVCAR-3
SK-MEL-5 = test system: SK-MEL-5
A549 = test system: A549
LOX IMVI = test system: LOX IMVI
UO-31 = test system: UO-31
SF-539 = test system: SF-539
SNB-78 = test system: SNB-78
HOP-92 = test system: HOP-92
RPMI-8226 = test system: RPMI-8226

O=c1c2ccc3cccc4c(=O)cc(c5ccccc15)-c2c34
GI50 (DMS-273): > 100 µM (inactive)
GI50 (COLO 205): > 100 µM (inactive)
GI50 (SR): > 100 µM (inactive)
GI50 (OVCAR-8): 28.6 µM (inactive)
GI50 (NCI-H460): > 100 µM (inactive)
GI50 (SF-268): > 100 µM (inactive)
GI50 (EKVX): > 100 µM (inactive)
GI50 (RXF 393): > 100 µM (inactive)
GI50 (OVCAR-5): > 100 µM (inactive)
GI50 (UACC-257): > 100 µM (inactive)
GI50 (HOP-18): 22.7 µM (inactive)
GI50 (CAKI-1): > 100 µM (inactive)
GI50 (SNB-75): > 100 µM (inactive)
GI50 (SW-620): > 100 µM (inactive)
GI50 (IGROV-1): > 100 µM (inactive)
GI50 (SF-295): > 100 µM (inactive)
GI50 (786-0): > 100 µM (inactive)
GI50 (HCT-15): > 100 µM
GI50 (CCRF-CEM): > 100 µM (inactive)
GI50 (U-251): 45.4 µM (inactive)
GI50 (NCI-H522): 76.9 µM (inactive)
GI50 (A498): > 100 µM (inactive)
GI50 (NCI-H23): 31.7 µM (inactive)
GI50 (DMS-114): 32 µM (inactive)
GI50 (SNB-19): > 100 µM (inactive)
GI50 (HCT-116): > 100 µM (inactive)
GI50 (Malme-3M): 30.5 µM (inactive)
GI50 (ACHN): > 100 µM (inactive)
GI50 (HL-60): 43.9 µM (inactive)
GI50 (HCC 2998): > 100 µM (inactive)
GI50 (SK-MEL-2): 22 µM (inactive)
GI50 (KM12): > 100 µM (inactive)
GI50 (DLD-1): > 100 µM (inactive)
GI50 (KM-20L2): > 100 µM (inactive)
GI50 (LXFL 529): 29.6 µM (inactive)
GI50 (UACC-62): > 100 µM (inactive)
GI50 (NCI-H226): > 100 µM (inactive)
GI50 (SN12C): > 100 µM (inactive)
GI50 (M14): > 100 µM (inactive)
GI50 (K562): 54.5 µM (inactive)
GI50 (TK-10): > 100 µM (inactive)
GI50 (HOP-62): > 100 µM (inactive)
GI50 (OVCAR-4): > 100 µM (inactive)
GI50 (SK-MEL-28): > 100 µM (inactive)
GI50 (SK-OV-3): > 100 µM (inactive)
GI50 (HT-29): > 100 µM (inactive)
GI50 (M19-MEL): 20.3 µM (inactive)
GI50 (MOLT-4): 59.2 µM (inactive)
GI50 (OVCAR-3): 28.2 µM (inactive)
GI50 (SK-MEL-5): 57.4 µM (inactive)
GI50 (A549): > 100 µM (inactive)
GI50 (LOX IMVI): 29.2 µM (inactive)
GI50 (UO-31): > 100 µM (inactive)

COc1cc([C@@H]2c3cc4c(cc3[C@@H](NCc3cccc(F)c3)C3COC(=O)[C@@H]32)OCO4)cc(OC)c1O (stereo partly drawn)
GI50 (DMS-273): 2.21 µM (inactive)
GI50 (COLO 205): 12.9 µM (inactive)
GI50 (OVCAR-8): 6.53 µM (inactive)
GI50 (NCI-H460): 0.37 µM (active)
GI50 (SF-268): 5.92 µM (inactive)
GI50 (EKVX): 12.4 µM (inactive)
GI50 (RXF 393): 8.85 µM (inactive)
GI50 (OVCAR-5): 13.9 µM (inactive)
GI50 (UACC-257): 10.8 µM (inactive)
GI50 (HOP-18): > 65 µM (inactive)
GI50 (CAKI-1): 6.85 µM (inactive)
GI50 (SNB-75): 1.95 µM (inactive)
GI50 (SW-620): 5.06 µM (inactive)
GI50 (IGROV-1): 3.18 µM (inactive)
GI50 (SF-295): 2.24 µM (inactive)
GI50 (786-0): 2.29 µM (inactive)
GI50 (HCT-15): 3.57 µM
GI50 (CCRF-CEM): 1.27 µM (inactive)
GI50 (SF-539): 2.52 µM (inactive)
GI50 (U-251): 1.23 µM (inactive)
GI50 (NCI-H522): 6.93 µM (inactive)
GI50 (SNB-78): 15.3 µM (inactive)
GI50 (A498): 2.68 µM (inactive)
GI50 (NCI-H23): 1.95 µM (inactive)
GI50 (DMS-114): 6.11 µM (inactive)
GI50 (SNB-19): 2.81 µM (inactive)
GI50 (HCT-116): 4.5 µM (inactive)
GI50 (Malme-3M): 4.69 µM (inactive)
GI50 (ACHN): 1.67 µM (inactive)
GI50 (HL-60): 1.19 µM (inactive)
GI50 (HCC 2998): 9.77 µM (inactive)
GI50 (SK-MEL-2): 12.9 µM (inactive)
GI50 (KM12): 7.01 µM (inactive)
GI50 (HOP-92): 7.53 µM (inactive)
GI50 (DLD-1): 9.71 µM (inactive)
GI50 (KM-20L2): 6.64 µM (inactive)
GI50 (LXFL 529): 13.4 µM (inactive)
GI50 (UACC-62): 2.47 µM (inactive)
GI50 (NCI-H226): 1.03 µM (active)
GI50 (SN12C): 2.14 µM (inactive)
GI50 (M14): 4.9 µM (inactive)
GI50 (K562): 6.49 µM (inactive)
GI50 (TK-10): 9.68 µM (inactive)
GI50 (HOP-62): 1.51 µM (inactive)
GI50 (OVCAR-4): 30.6 µM (inactive)
GI50 (SK-MEL-28): 8.61 µM (inactive)
GI50 (SK-OV-3): 4.19 µM (inactive)
GI50 (HT-29): 8.61 µM (inactive)
GI50 (MOLT-4): 0.364 µM (active)
GI50 (OVCAR-3): 12.2 µM (inactive)
GI50 (SK-MEL-5): 7.13 µM (inactive)
GI50 (A549): 1.17 µM (inactive)
GI50 (RPMI-8226): 2.29 µM (inactive)
GI50 (LOX IMVI): 3.58 µM (inactive)
GI50 (UO-31): 5.57 µM (inactive)

C[n+]1ccc2[nH]c3ccccc3c2c1
GI50 (DMS-273): > 100 µM (inactive)
GI50 (COLO 205): > 100 µM (inactive)
GI50 (OVCAR-8): > 100 µM (inactive)
GI50 (NCI-H460): > 77.4 µM (inactive)
GI50 (SF-268): > 100 µM (inactive)
GI50 (EKVX): > 100 µM (inactive)
GI50 (RXF 393): > 100 µM (inactive)
GI50 (OVCAR-5): > 58.3 µM (inactive)
GI50 (UACC-257): > 100 µM (inactive)
GI50 (HOP-18): > 45 µM (inactive)
GI50 (CAKI-1): > 100 µM (inactive)
GI50 (SNB-75): > 100 µM (inactive)
GI50 (SW-620): > 86.3 µM (inactive)
GI50 (IGROV-1): > 100 µM (inactive)
GI50 (SF-295): > 100 µM (inactive)
GI50 (786-0): > 100 µM (inactive)
GI50 (HCT-15): > 100 µM
GI50 (CCRF-CEM): > 100 µM (inactive)
GI50 (SF-539): > 100 µM (inactive)
GI50 (U-251): > 100 µM (inactive)
GI50 (NCI-H522): > 100 µM (inactive)
GI50 (SNB-78): > 100 µM (inactive)
GI50 (A498): 90.2 µM (inactive)
GI50 (NCI-H23): > 100 µM (inactive)
GI50 (SNB-19): > 100 µM (inactive)
GI50 (HCT-116): 48.6 µM (inactive)
GI50 (Malme-3M): 35.6 µM (inactive)
GI50 (ACHN): > 100 µM (inactive)
GI50 (HL-60): > 100 µM (inactive)
GI50 (HCC 2998): > 100 µM (inactive)
GI50 (SK-MEL-2): > 100 µM (inactive)
GI50 (KM12): 77.1 µM (inactive)
GI50 (HOP-92): > 100 µM (inactive)
GI50 (DLD-1): > 100 µM (inactive)
GI50 (KM-20L2): > 100 µM (inactive)
GI50 (LXFL 529): > 100 µM (inactive)
GI50 (UACC-62): > 100 µM (inactive)
GI50 (NCI-H226): 61 µM (inactive)
GI50 (SN12C): > 100 µM (inactive)
GI50 (M14): > 100 µM (inactive)
GI50 (K562): > 100 µM (inactive)
GI50 (TK-10): > 100 µM (inactive)
GI50 (HOP-62): > 52.8 µM (inactive)
GI50 (OVCAR-4): > 100 µM (inactive)
GI50 (SK-MEL-28): > 100 µM (inactive)
GI50 (SK-OV-3): > 100 µM (inactive)
GI50 (HT-29): > 100 µM (inactive)
GI50 (M19-MEL): > 100 µM (inactive)
GI50 (MOLT-4): 38.8 µM (inactive)
GI50 (OVCAR-3): > 100 µM (inactive)
GI50 (SK-MEL-5): > 78.3 µM (inactive)
GI50 (A549): > 100 µM (inactive)
GI50 (RPMI-8226): > 100 µM (inactive)
GI50 (LOX IMVI): > 100 µM (inactive)
GI50 (UO-31): > 100 µM (inactive)
